Earlier results on one compound are cited in patent publication US6765015B2, “Halogenated paclitaxel derivatives” (Xechem International, Inc., priority 1995, dated 2004).

In this series the test system is leukemic tumors. As to conditions: in vivo.

Regarding `C/C=C(\C)C(=O)N[C@@H](c1ccccc1)[C@@H](O)C(=O)O[C@H]1C[C@@]2(O)[C@@H](OC(=O)c3ccccc3)[C@@H]3[C@]4(OC(C)=O)CO[C@@H]4C[C@H](O)[C@@]3(C)C(=O)[C@H](OC(C)=O)C(=C1C)C2(C)C` [Cephalomannine, cephalomannine], the “remission of leukemic tumors” value is given as “effective in causing remission of leukemic tumors”.
